These results are taken from patent publication US12691101B2, “Compound and method for preventing or treating of respiratory diseases comprising the same as an active ingredient” (YONSEI UNIVERSITY, UNIVERSITY - INDUSTRY FOUNDATION (UIF), priority 2019, dated 2026).

pIC50: −log10 of the molar value. Bounds are passed on as bounds.

The target of assay [1] is T1, SLC26A6 (Homo sapiens, UniProt Q9BXS9).
T1 construct: expressed in transfected cells; host or cells: CHO-K1
Put plainly: Cl^−/HCO3^− exchange in CHO-K1 cells expressing SLC26A6. The conditions noted are these: weakly inhibited. It is filed as cell-based. The method, then: (A) The inhibition of mouse pendrin (mPDS)-mediated Cl^−/I^− exchange activity by F56 was measured in CHO-K1 cells (mean±S.E., n=5). The indicated concentration of F56 was pretreated for 10 minutes. (B) Summary of dose-response for inhibition of the human pendrin (hPDS)-mediated (closed circle, FIG. (a), C) and mPDS-mediated (open circle) Cl^−/I^− exchange activity. (C-F) Representative traces of intracellular pH in CHO-K1 cells expressing SLC26A3, SLC26A6, SLC26A7 and SLC26A9 were shown. The application of Cl^− free solution induced intracellular alkalization by Cl^−/HCO3^− exchange. The indicated concentration of F56 was pretreated for 10 minutes. (G) the effect of F56 (100 μM) on the CFTR chloride channel activity was measured in FRT cells expressing human CFTR. The CFTR current was activated by 20 μM forskolin and was inhibited by 10 μM CFTRinh-172. (H) The effect of F56 (100 μM) on the AN01 chloride channel activity was measured in FRT cells expressing human AN01. Before 10 minutes prior to AN01 activation by 100 μM ATP, F56 was added. (Right) Peak current summary (mean±S.E., n=3). (I) The effect of F56 on the hERG (Kv11.1) potassium channel activity was measured in HEK293T cells expressing human Kv11.1 (mean±S.E., n=4). […] (J) The effect of F56 on the 5-HT2A channel activity was measured in FRT cells expressing human 5-HT2A (mean±S.E., n=4). […]

The test system of assay [2] is AN01, CFTR and ENaC ion channel activity. As to the kind of experiment: Short circuit current in HNE cells. The conditions noted are these: long-term treatment (48 hours). The class given is cell-based, human. The method, then: (A) Representative tracing of intracellular pH of treated (grey line) and IL-4 (10 ng/ml) treated HNE cells. Pendrin was inhibited by F56 ([…]). (B) The mRNA expression level of pendrin was determined at the indicated time after treatment of F56 ([…]) by real-time quantitative PCR in IL-4-treated HBE cells (mean±S.E., n=3). (C) The Cl^−/HCO3^− exchange activity was measured in IL-4-treated HBE cells. F56 was pretreated for 5 minutes. (D, E) Short circuit current record of HNE cells. Representative tracing showing the effect of F56 on the ENaC, CFTR and CaCC channel activity. After exposing to F56 ([…]) for 48 hours, in presence or absence of IL-4, the channel activity was measured. Amiloride (100 μM), forskolin (20 μM, CFTRinh-172 (10 μM) and ATP (100 μM) were added to the apical bath. (F) The AN01, CFTR and ENaC mRNA expression level was determined at the indicated time after treatment of F56 ([…]) by real-time quantitative PCR in IL-4-treated HNE cells (mean±S.E., n=5) * P<0.05, ** P<0.01, *** P<0.001.
Snapwell inserts containing the primary culture of AN01- and CFTR-expressing FRT and human nasal cavity epithelium (HNE) cells were equipped on Ussing chamber (Physiologic Instruments, San Diego, CA, USA). […] Using Labchart Pro 7 (AD Instruments), data were recorded and analyzed. […]

The subject of assay [3] is AN01. As to the kind of experiment: Protein expression measurement in IL-4-treated HNE cells, AN01. The class given is cell-based, human. The conditions noted are these: long-term treatment. As to the method: CHO-K1 and HNE cells were lysed with a cytolytic buffer (50 mM Tris-HCl, pH 7.4, 1% Nonidet P-40, 0.25% sodium deoxycholate, 150 mM NaCl, 1 mM EDTA, 1 mM Na3VO4, and protease inhibiting mixture). The total cell lysates were under centrifugation at 15,000×g for 10 minutes at 4° C. to remove cellular debris and the same amount (50 μg protein or 5 μg protein/lane) of supernatant protein was isolated on 4-12% Tris-glycine precast gel (KOMA BIOTECH, Seoul, Korea) and transferred to PVDF membrane (Millipore, Billerica, MA, USA). The membrane was blocked with 5% fat-free skim milk in TBS containing 0.1% Tween 20 (TBST) or 5% bovine serum albumin in TBS at a room temperature for 1 hour. Then, the membrane was cultured at 4° C. overnight with a primary antibody against pendrin (sc-50346; Santa Cruz Biotechnology, Santa Cruz, CA, USA), NF-κB p65 (4764S; Cell Signaling Technology, Danvers, MA, USA), p-NF-κB p65 (3033S; Cell Signaling Technology), IkBα (9242S; Cell Signaling Technology), p-IkBα (9141S; Cell Signaling Technology), β-actin (sc-47778; Santa Cruz Biotechnology), or AN01 (ab64085; Abeam). After washing with 0.05% Tween 20 (TBST) in PBS, the blot was additionally cultured with a secondary antibody (Cell Signaling Technology, Danvers, MA) at a room temperature for 60 minutes. […]

T1 sequence (Q9BXS9 whole entry, species assumed): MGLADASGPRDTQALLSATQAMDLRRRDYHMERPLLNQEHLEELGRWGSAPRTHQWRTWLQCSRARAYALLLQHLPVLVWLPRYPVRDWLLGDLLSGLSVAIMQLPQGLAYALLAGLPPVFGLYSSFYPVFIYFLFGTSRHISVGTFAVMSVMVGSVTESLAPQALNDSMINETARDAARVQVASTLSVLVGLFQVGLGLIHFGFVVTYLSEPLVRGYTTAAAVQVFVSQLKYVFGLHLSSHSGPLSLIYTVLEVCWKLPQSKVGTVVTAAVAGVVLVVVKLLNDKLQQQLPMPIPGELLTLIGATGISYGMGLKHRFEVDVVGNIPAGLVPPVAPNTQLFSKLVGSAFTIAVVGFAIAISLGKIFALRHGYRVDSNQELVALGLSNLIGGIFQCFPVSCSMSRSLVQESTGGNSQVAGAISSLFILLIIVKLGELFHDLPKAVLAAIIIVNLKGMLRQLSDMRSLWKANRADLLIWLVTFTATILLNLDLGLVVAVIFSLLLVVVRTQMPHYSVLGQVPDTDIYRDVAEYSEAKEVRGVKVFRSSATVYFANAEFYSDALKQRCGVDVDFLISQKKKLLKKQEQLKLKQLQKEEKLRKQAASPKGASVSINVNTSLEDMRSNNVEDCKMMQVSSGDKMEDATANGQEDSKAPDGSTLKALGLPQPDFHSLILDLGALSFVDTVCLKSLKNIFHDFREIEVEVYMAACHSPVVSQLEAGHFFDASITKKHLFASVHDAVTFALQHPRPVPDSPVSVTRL

On to `CC(C)(C)c1ccc(C2=NC(=Cc3cccs3)C(=O)O2)cc1` [F56, 2-(4-(tert-butyl)phenyl)-4-(thiophen-2-ylmethylene)oxazol-5(4H)-one], for which the pIC50 in assay [1] is < 4.00. In addition, the “ion channel activity of AN01, CFTR and ENaC” value in assay [2] is recorded as “did not change”. The “IL-4-induced upregulation of AN01” value in assay [3] was “not affected”.

Usually pIC50 stands for the negative decadic logarithm of the IC50, by convention in mol/L. The low end stands for a high IC50, the high end for a low IC50.
